Experimental data taken from patent US11826399B2, “Chlorotoxin agents and uses thereof” (Eisai Inc., priority 2017, dated 2023).
Several values for one entry are separate records, joined by “and”; a condition that tells them apart may be missing. Identical values can stand only once.

Experiment: Plasma and tissue distribution of Cryptophycin Payload and Cryptophycin Metabolite 1 after Cryptophycin Payload alone or with CTX in PC-3 xenograft nude mice (LC-MS/MS)
Type: in vivo, mouse
Method: For the present experiment, materials, methods, drugs and model were as described in Example 21. […] Following intravenous administration, whole blood samples were collected at predetermined time points via cardiac puncture (n=3 mice per time point). Blood samples were centrifuged to obtain plasma and subsequently stored at […] or lower pending analysis. Additionally, at each time point, kidney, liver, small intestine, brain, heart, and tumor were harvested by removing entire specimen from surrounding tissues (only a portion of liver and small intestine were removed). After removal, tissues were rinsed with normal saline solution (contents of small intestine were emptied) and blotted dry with clean adsorptive tissue. Once dried, the specimens were weighed and stored at −20° C. or lower pending analysis. […] Pharmacokinetic (PK) parameters were calculated. Mean plasma and tissue concentrations were used to calculate mean PK parameters. Skin and skeletal muscle which were not assessed due to difficulty of homogenization.
Vehicle for single dose group was 10% ethanol, 5% Tween 80, 85% saline. Vehicle for combination treatment was 5% ethanol, 2.5% Tween 80, 92.5% saline.

[1] = Brain, Payload 0.4 mg/kg + CTX 16 mg/kg IV
[2] = Brain, Payload 0.4 mg/kg IV alone
[3] = Heart, Payload 0.4 mg/kg + CTX 16 mg/kg IV
[4] = Heart, Payload 0.4 mg/kg IV alone
[5] = Kidney, Payload 0.4 mg/kg + CTX 16 mg/kg IV
[6] = Kidney, Payload 0.4 mg/kg IV alone
[7] = Liver, Payload 0.4 mg/kg + CTX 16 mg/kg IV
[8] = Liver, Payload 0.4 mg/kg IV alone
[9] = Payload 0.4 mg/kg + CTX 16 mg/kg IV, 0.083 h
[10] = Payload 0.4 mg/kg + CTX 16 mg/kg IV, 0.5 h
[11] = Payload 0.4 mg/kg + CTX 16 mg/kg IV, 1 h
[12] = Payload 0.4 mg/kg + CTX 16 mg/kg IV, 2 h
[13] = Payload 0.4 mg/kg + CTX 16 mg/kg IV, 6 h
[14] = Payload 0.4 mg/kg + CTX 16 mg/kg IV, 24 h

## CCCCNC(=O)Cc1ccccc1SSC(C)(C)CCN1CCN(Cc2ccc(C3OC3C(C)C3CC=CC(=O)NC(Cc4ccc(OC)c(Cl)c4)C(=O)NCC(C)(C)C(=O)NC(CC(C)C)C(=O)O3)cc2)CC1 (stereo not drawn) [Cryptophycin Payload]
[1]
  AUC(0-t) of Cryptophycin Payload: 3.69 ng·h/g
  tmax of Cryptophycin Payload: 4.8 min
Brain, Payload 0.4 mg/kg + CTX 16 mg/kg IV, AUC0-2 h tissue/AUC0-2 h plasma
  TPI of Cryptophycin Payload: 0.0315 mL/g and 0.0315^d mL/g
[2]
  AUC(0-inf) of Cryptophycin Payload: 3.57 ng·h/g
  AUC(0-t) of Cryptophycin Payload: 3.02 ng·h/g
  t1/2 of Cryptophycin Payload: 0.941 h
  tmax of Cryptophycin Payload: 4.98 min and 4.8 min
Brain, Payload 0.4 mg/kg IV alone, AUC0-2 h tissue/AUC0-2 h plasma
  TPI of Cryptophycin Payload: 0.0208 mL/g and 0.0208^d mL/g
[3]
  AUC(0-inf) of Cryptophycin Payload: 62.0 ng·h/g
  AUC(0-t) of Cryptophycin Payload: 59.2 ng·h/g
  t1/2 of Cryptophycin Payload: 1.44 h
  tmax of Cryptophycin Payload: 4.8 min
Heart, Payload 0.4 mg/kg + CTX 16 mg/kg IV, AUC0-inf tissue/AUC0-inf plasma
  TPI of Cryptophycin Payload: 0.481 mL/g
[4]
  AUC(0-inf) of Cryptophycin Payload: 38.9 ng·h/g
  AUC(0-t) of Cryptophycin Payload: 36.8 ng·h/g
  t1/2 of Cryptophycin Payload: 1.71 h
  tmax of Cryptophycin Payload: 4.98 min and 4.8 min
Heart, Payload 0.4 mg/kg IV alone, AUC0-inf tissue/AUC0-inf plasma
  TPI of Cryptophycin Payload: 0.253 mL/g
[5]
  AUC(0-inf) of Cryptophycin Payload: 1230 ng·h/g
  AUC(0-t) of Cryptophycin Payload: 1210 ng·h/g
  t1/2 of Cryptophycin Payload: 4.19 h
  tmax of Cryptophycin Payload: 30 min
Kidney, Payload 0.4 mg/kg + CTX 16 mg/kg IV, AUC0-inf tissue/AUC0-inf plasma
  TPI of Cryptophycin Payload: 9.53 mL/g
[6]
  AUC(0-inf) of Cryptophycin Payload: 826 ng·h/g
  AUC(0-t) of Cryptophycin Payload: 804 ng·h/g
  t1/2 of Cryptophycin Payload: 4.70 h
  tmax of Cryptophycin Payload: 4.98 min and 4.8 min
Kidney, Payload 0.4 mg/kg IV alone, AUC0-inf tissue/AUC0-inf plasma
  TPI of Cryptophycin Payload: 5.36 mL/g
[7]
  AUC(0-t) of Cryptophycin Payload: 15.1 ng·h/g
  tmax of Cryptophycin Payload: 60 min
Liver, Payload 0.4 mg/kg + CTX 16 mg/kg IV, AUC0-6 h tissue/AUC0-6 h plasma
  TPI of Cryptophycin Payload: 0.118 mL/g and 0.118^c mL/g
[8]
  AUC(0-t) of Cryptophycin Payload: 9.65 ng·h/g
  tmax of Cryptophycin Payload: 4.98 min and 4.8 min
Liver, Payload 0.4 mg/kg IV alone, AUC0-6 h tissue/AUC0-6 h plasma
  TPI of Cryptophycin Payload: 0.0631 mL/g and 0.0631^c mL/g
[9]
  Concentration of Cryptophycin Payload, Brain, Mean: 3.97 ng/g
  Concentration of Cryptophycin Payload, Heart, Mean: 47.3 ng/g
  Concentration of Cryptophycin Payload, Kidney, Mean: 389 ng/g
  Concentration of Cryptophycin Payload, Liver, Mean: 3.89 ng/g
  Concentration of Cryptophycin Payload, Plasma, Mean: 268 ng/mL
  Concentration of Cryptophycin Payload, Small Intestine, Mean: 19.8 ng/g
  Concentration of Cryptophycin Payload, Tumor, Mean: 12.5 ng/g
[10]
  Concentration of Cryptophycin Payload, Brain, Mean: 2.09 ng/g
  Concentration of Cryptophycin Payload, Heart, Mean: 41.3 ng/g
  Concentration of Cryptophycin Payload, Kidney, Mean: 411 ng/g
  Concentration of Cryptophycin Payload, Liver, Mean: 7.13 ng/g
  Concentration of Cryptophycin Payload, Plasma, Mean: 37.9 ng/mL
  Concentration of Cryptophycin Payload, Small Intestine, Mean: 13.4 ng/g
  Concentration of Cryptophycin Payload, Tumor, Mean: 10.3 ng/g
[11]
  Concentration of Cryptophycin Payload, Brain, Mean: 2.07 ng/g
  Concentration of Cryptophycin Payload, Heart, Mean: 18.7 ng/g
  Concentration of Cryptophycin Payload, Kidney, Mean: 317 ng/g
  Concentration of Cryptophycin Payload, Liver, Mean: 7.13 ng/g
  Concentration of Cryptophycin Payload, Plasma, Mean: 43.8 ng/mL
  Concentration of Cryptophycin Payload, Small Intestine, Mean: 15.5 ng/g
  Concentration of Cryptophycin Payload, Tumor, Mean: 9.46 ng/g
[12]
  Concentration of Cryptophycin Payload, Brain, Mean: 0.703 ng/g
  Concentration of Cryptophycin Payload, Heart, Mean: 6.37 ng/g
  Concentration of Cryptophycin Payload, Kidney, Mean: 179 ng/g
  Concentration of Cryptophycin Payload, Liver, Mean: 2.13 ng/g
  Concentration of Cryptophycin Payload, Plasma, Mean: 7.53 ng/mL
  Concentration of Cryptophycin Payload, Small Intestine, Mean: 5.66 ng/g
  Concentration of Cryptophycin Payload, Tumor, Mean: 10.1 ng/g
[13]
  Concentration of Cryptophycin Payload, Brain, Mean: BLQ
  Concentration of Cryptophycin Payload, Heart, Mean: 1.39 ng/g
  Concentration of Cryptophycin Payload, Kidney, Mean: 35.9 ng/g
  Concentration of Cryptophycin Payload, Liver, Mean: 0.632 ng/g
  Concentration of Cryptophycin Payload, Plasma, Mean: 0.537 ng/mL
  Concentration of Cryptophycin Payload, Small Intestine, Mean: 0.873 ng/g
  Concentration of Cryptophycin Payload, Tumor, Mean: 2.80 ng/g
[14]
  Concentration of Cryptophycin Payload, Brain, Mean: BLQ
  Concentration of Cryptophycin Payload, Heart, Mean: BLQ
  Concentration of Cryptophycin Payload, Kidney, Mean: 3.39 ng/g
